Test results: patent US20220362365A1, “IMPROVED COMPOSITIONS AND METHODS FOR SHARED NEO-EPITOPE VACCINES” (Epivax Therapeutics Inc., priority 2019, published 2022)

Key:
CT26 tumor cells = assay: CT26 tumor growth / survival after vaccination (Example 1); format: in vivo; conditions: CT26 tumor-bearing Balb/c mice
[1] = tested on: CT26 murine colon tumor cells; assay: Anti-tumor activity with or without poly-ICLC, CT26 murine tumor model (Example 13); format: in vivo; conditions: CT26 tumor-bearing BALB/c mice, n=10, day 25 post-tumor implantation, relative to PBS or poly-ICLC alone
Procedure: The goal of this experiment was to determine the requirement for the inclusion of the adjuvant poly-ICLC in a peptide vaccine containing ANCER™ selected neoantigens. For this experiment, female BALB/c mice were implanted subcutaneously with 3×10^5 CT26 murine colon tumor cells. Tumor growth was monitored by caliper measurement and mice were sacrificed 45 days after tumor implantation or when tumor volumes reached 2000 mm^3, whichever came first.
Four vaccine groups were tested (n=10 mice/group): • Group 1=PBS only • Group 2=PBS with 50 μg poly-ICLC • Group 3=20 ANCER™ selected (uncapped) peptides with 50 μg poly-ICLC • Group 4=20 ANCER™ selected (uncapped) peptides only
Peptide vaccines were comprised of 20 different ANCER™ selected peptides at a concentration of 5 μg/peptide for a total dose of 100 μg peptide per immunization. Mice were immunized subcutaneously in the opposite flank from tumor implantation twice per week for three weeks, starting at day 4 post-tumor implantation.

## poly-ICLC
CT26 tumor cells; 50 μg sc days 5, 8, 12, 15, 19, 22, 26
  tumor burden compared to Group 1 (mice immunized with PBS): no reduction in tumor burden
CT26 tumor cells; N=10
  mice surviving past day 28: Less than 50%
  mice surviving the 45 days of the experiment (in words): None
CT26 tumor cells; N=10, day 28, PBS group 70%
  mice reaching a tumor volume of at least 2,000 mm^3 (endpoint) by day 28: 60%
[1]
  control of tumor growth: no difference in tumor growth kinetics
